Experimental data reported in patent publication US10696996B2, “Biosynthesis of everninomicin analogs in Micromonospora carbonacea var aurantiaca” (VANDERBILT UNIVERSITY, priority 2015, dated 2020).
In brackets after ≈: the same amount, converted by molar mass. Where two headings read alike, the source gives them in different places.

Tests used:
[1] = system: Staphyloccocus aureus subsp. aureus Rosenbach (ATCC 6538P); test: broth microdilution assay (NCCLS), antibacterial activity; format: cell-based, Staphylococcus aureus; conditions: for MIC: S. aureus subsp. aureus Rosenbach, broth microdilution
Procedure: The antibacterial activity of purified everninomicins and conjugates was determined by the broth microdilution assay according to NCCLS guidelines using Staphyloccocus aureus subsp. aureus Rosenbach (ATCC 6538P) as the test organism.

HygX = target: T1, HygX (Streptomyces hygroscopicus, UniProt Q2MFS1); test: tryptophan fluorescence quenching assay, hygromycin B binding to HygX; design: species or system S. hygroscopicus; conditions: 20° C.
T1 sequence (Q2MFS1 1-258): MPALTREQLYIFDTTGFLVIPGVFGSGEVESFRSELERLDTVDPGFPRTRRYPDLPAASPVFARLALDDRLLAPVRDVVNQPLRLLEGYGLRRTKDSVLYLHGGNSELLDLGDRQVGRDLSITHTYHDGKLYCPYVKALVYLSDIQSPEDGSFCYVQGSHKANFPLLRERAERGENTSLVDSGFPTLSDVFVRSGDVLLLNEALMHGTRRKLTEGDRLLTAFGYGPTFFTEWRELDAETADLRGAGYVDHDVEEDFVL
Procedure: The Kd of hygromycin B binding to HygX was determined by monitoring the quenching of intrinsic fluorescence from the single tryptophan residue of HygX upon hygromycin B binding. Using a Cary Eclipse Varian fluorescence spectrometer, sample fluorescence was measured at 20° C. with both emission and excitation slits set at 10 nm and detector voltage set to 800 V. The […] wavelength was set to 280 nm, and spectra collected were from 300 to 400 nm, with 350 nm used for calculating binding affinity. Each sample contained 990 μL of 0.5 μM HygX in 25 mM Tris (pH 7.4), 75 mM NaCl, 0.05 mM AKG, and 0.05 mM NiCl2, which was then mixed with 10 μL of hygromycin B (diluted in the above buffer) of varying concentrations. Spectra were measured in triplicate, and the experiment repeated three times. Because hygromycin B at higher concentrations has background fluorescence between 300 and 400 nm, the experiment was repeated using only buffer and subtracted from the measurement taken with HygX present. Change in fluorescence resulting from changing hygromycin B concentration was plotted against hygromycin B concentration and fit to a single binding-site model using Kaleidagraph Version 4.0.

M. carbonacea = test: nalidixic acid concentration test for conjugation, survival of M. carbonacea; format: cell-based, Micromonospora carbonacea var aurantiaca
E. coli = test: nalidixic acid concentration test for conjugation, growth of donor E. coli; format: cell-based, Escherichia coli
Procedure: M. carbonacea was grown on TSB agar (Oxoid™ Tryptone Soy Broth, 2% agarose) for 7 days at 30° C. Conjugal acceptor mycelia were prepared by inoculating a loop of mycelia into 10 mL of TSB medium in a 50 mL Falcon tube and incubating with shaking at 30° C. for 5 days. The culture was then centrifuged at 3000×g for 10 minutes and the pellet resuspended in 2 mL fresh TSB. 150 μL aliquots were transferred into sterile 1.5 mL Eppendorf tubes and homogenized using a sterile plastic cell homogenizer. Donor E. coli ET12567/pUZ8002 cells containing the gene replacement were prepared by inoculating 1% of a freshly prepared overnight LB culture into 10 mL LB medium in a 50 mL Falcon tube containing apramycin and kanamycin and grown to an OD600 of 0.4 at 37° C. with shaking. The culture was centrifuged at 3000×g for 10 minutes, and the pellet was washed three times with 10 mL fresh LB. After the final wash, the pellet was resuspended in 150 μL LB. 50 μL of donor E. coli was added to 150 μL of recipient M. carbonacea. The bacterial mixture was plated on AS1 agar (0.1% yeast extract, 0.5% soluble starch, 0.02% L-alanine, 0.02% L-arginine, 0.05% L-asparagine, 0.25% NaCl, 1% Na2SO4, 2% agarose at pH 7.5, supplemented with 10 mM MgCl2). The plates were then incubated at 37° C. for 1-2 hours until thoroughly dried. […]

[2] = Staphylococcus aureus, ATCC6538P, read-out: MIC

## CCC1OC(=O)C[C@@H](O)[C@H](C)[C@@H](OC2OC(C)CC(N(C)C)C2O)[C@@H](CC=[N+]([O-])[C@@]2(C)C[C@@H](O[C@@H]3C[C@H](O[C@@H]([C@H](O)CC(=O)O)[C@@H](C)O)O[C@H](C)[C@H]3OC(=O)c3c(C)c(Cl)c(O)c(Cl)c3OC)O[C@@H](C)[C@H]2OC)C[C@@H](C)C(=O)/C=C/[C@]2(C)O[C@H]2[C@@H]1C (stereo partly shown)
[1]; [2]
  MIC: 1 µg/mL (≈ 0.791 µM)

## COC[C@H]1O[C@@H](O[C@@H]2OC[C@@H]3O[C@@]4(OC[C@@H](OC(=O)c5c(C)cc(O)cc5O)[C@@H]5OCO[C@H]54)O[C@H]3[C@H]2O)[C@@H](OC)[C@@H](O)[C@@H]1O[C@@H]1O[C@H](C)[C@H](OC)[C@H](O[C@@H]2O[C@H](C)[C@H]3O[C@]4(C[C@@H](O)[C@H](O[C@H]5C[C@@H](O[C@H]6C[C@](C)([N+](=O)[O-])[C@@H](OC)[C@H](C)O6)[C@H](OC(=O)c6c(C)c(Cl)c(O)c(Cl)c6OC)[C@@H](C)O5)[C@@H](C)O4)O[C@]3(C)[C@@H]2O)[C@H]1O [everninomicin A]
[1]; [2]
  MIC: 1 µg/mL (≈ 0.613 µM)

## CNC1CC(N)C(O)C(OC2OC(CO)C(O)C3OC4(OC(C(N)CO)C(O)C(O)C4O)OC23)C1O (stereo not shown) [hygromycin B]
HygX
  Kd: 3.4 ± 0.5 µM

## CCn1cc(C(=O)O)c(=O)c2ccc(C)nc21 [nalidixic acid]
M. carbonacea; nalidixic acid 12.5 μg/mL
  growth of M. carbonacea: substantially more
M. carbonacea; nalidixic acid 25 μg/mL
  growth of M. carbonacea: stunted the growth
M. carbonacea; nalidixic acid 50 μg/mL
  viability of M. carbonacea: not viable
E. coli; nalidixic acid 12.5 μg/mL
  growth of E. coli: stunted
E. coli; nalidixic acid 25 μg/mL
  growth of E. coli: stunted the growth

## everninomicin H
[1]; S. aureus
  activity against S. aureus: moderately active
[1]
  MIC: 16 µg/mL
